This is an account of results in patent US6552027B2, “Quinazolines for treating brain tumor” (Parker Hughes Institute, priority 1998, dated 2003).

The melting point is the temperature of the solid-liquid transition. For orientation: IC50 means the point on the concentration scale where inhibition reaches its midpoint.

For data set [1], the system named is U373 human glioblastoma cell line. In words: MTT cytotoxicity assay, U373 glioblastoma cells. Particulars: for IC50: Homo sapiens, U373 MG. The protocol:
(§1) The cytotoxicity assay of various compounds against human brain tumor cell lines was performed using the MTT (3-[4,5-dimethylthiazol-2-yl]-2,5-diphenyl tetrazolium bromide) assay (Boehringer Mannheim Corp., Indianapolis, Ind.). Briefly, exponentially growing brain tumor cells were seeded into a 96-well plate at a density of 2.5×10^4 cells/well and incubated for 36 hours at 37° C. prior to drug exposure. […] Triplicate wells were used for each treatment.
Human glioblastoma cell line U373 was obtained from American. Type Culture Collection (Rockville, Md.) and maintained as a continuous cell line in Dulbecco's modified Eagles's medium supplemented with 10% fetal bovine serum and antibiotics. The B-lineage acute lymphoblastic leukemia cell line Nalm-6 was used as a negative control.
(§2) The cells were incubated with the various compounds for 24-36 hours at 37° C. in a humidified 5% CO2 atmosphere. To each well, 10 μl of MTT (0.5 mg/ml final concentration) was added and the plates were incubated at 37° C. for 4 hours to allow MTT to form formazan crystals by reacting with metabolically active cells. The formazan crystals were solubilized overnight at 37° C. in a solution containing 10% SDS in 0.01 M HCl. The absorbence of each well was measured in a microplate reader (Labsystems) at 540 nm and a reference wavelength of 690 nm. To translate the OD540 values into the number of live cells in each well, the OD540 values were compared to those on standard OD540—versus—cell number curves generated for each cell line. The percent survival was calculated using the formula: [formula]
(§3) The IC50 values were calculated by non linear regression analysis.
(In general: Formazan colour is commonly taken as a measure of viable cells.)

In data set [2] the test system is U87 human glioblastoma cell line. Kind of data set: MTT cytotoxicity assay, U87 glioblastoma cells. The class given is cell-based. The settings on record: Homo sapiens, unconjugated compound, read-out: IC50 value. The protocol: as §1, §2, §3
Apoptosis was also evaluated using the nick-end-labeling assay, as described for Example 3.

Another data set deals with U373 cells. Kind of data set: Adhesion of glioblastoma cells to ECM protein-coated plates. The class given is cell-based, human. Particulars: for IC50: Homo sapiens, U373 MG. The protocol:
In vitro adhesion assays were performed to (a) study the baseline adhesive properties of various glioblastoma cell lines and (b) evaluate the effects of quinazoline derivatives on the adhesive properties of glioblastoma cells. The plates for the adhesion assays were precoated with the extracellular matrix proteins laminin, fibronectin or type IV collagen (each at a final concentration of 1 μg/ml in PBS) overnight at 4° C. and dried. On the day of the experiment, the wells were rehydrated and blocked with 10% bovine serum albumin in PBS for 1 hour at room temperature and used for the adhesion assays, as described below.
DMSO (0.1%) was included as a vehicle control. After treatment, cells were detached from the flasks with 0.05% trypsin (Life Technologies) resuspended in DMEM, incubated at 37° C. for 2 hours to allow them to recover from the trypsinization stress and examined for their ability to adhere to plates precoated with ECM proteins.
In adhesion assays, cells were centrifuged, washed twice with serum-free DMEM, counted and resuspended in serum-free DMEM to a final concentration of 2.5×10^5 cells/ml. One hundred μl of the cell suspension containing 2.5×10^4 cells were added to each well and cells were allow d to adhere for 1 hour at 37° C. in a humidified 5% CO2 atmosphere. The adherent fraction was quantitated using MTT (3-[4,5-dimethylthiazol-2-yl]-2,5-diphenyltetrazolium bromide) assays. […] The adherent fractions of cells treated with quinazoline derivatives were compared to those of DMSO-treated control cells and the percent inhibition of adhesion was determined sing the formula: [formula]
Each treatment condition was evaluate d in duplicate in 3 independent experiments.

In data set [3] the test system is U373 human glioblastoma cells. Kind of data set: SCID mouse xenograft model of human glioblastoma. The settings on record: 1 mg/kg/day×10 days i.p. The protocol:
The right hind legs of the CB. 17 SCID mice were inoculated subcutaneously (s.c.) with 0.5×10^6 U373 human glioblastoma cells in 0.2 mL PBS. […] Daily treatments with PBS, unconjugated EGF (1 mg/kg/dose), and unconjugated WHI-P154 (1 mg/kg/dose) were used as controls. Mice were monitored daily for health status and tumor growth, and were sacrificed if they became moribund developed tumors which impeded their ability to attain food or water, at the end of the 3-month observation period. Tumors were measured using Vernier calipers twice weekly, and the tumor volumes were calculated according to the following formula (Friedman, S. H., mDolan, M. E., Pegg, A. E., Marcelli, S., Keir, S., Catino, J. J., Binger, D. D., Schold, S. C., Jr., 1995, Cancer Res., 55:2853-2857): [formula]
For histopathologic studies, tissues were fixed in 10% neutral buffered formalin, dehydrated, and embedded in paraffin by routine methods. Glass slides with affixed 6 micron tissue sections were prepared and stained with hematoxylin/eosin. Primary endpoints of interest were tumor growth and tumor-free survival outcome. Estimation of life table outcome and comparisons of outcome between groups were done, as previously reported (Waurzyniak, et al., 1997, Clinical Cancer Research 3:881-890; Anderson, et al., 1995, Cancer Res. 55:1321-1327; Uckun, et al., 1997, J. Clin. Oncol. 15:2214-2221).
In general terms: In xenograft studies the graft and the host belong to different species.

For another data set, the system named is NALM-6 leukemia cells. Kind of data set: MTT cytotoxicity assay, EGF-R negative leukemia cells (negative control line). The class given is cell-based. Particulars: NALM-6; FIG. 5B. The protocol: Triplicate wells were used for each treatment.
Human glioblastoma cell line U373 was obtained from American.
The percent survival was calculated using the formula: [formula]

Another data set relates to U373 glioblastoma cells. Kind of data set: Glioblastoma cell invasion through Matrigel matrix (Boyden chambers). The class given is cell-based. Particulars: Homo sapiens, U373 MG. The procedure: The in vitro invasiveness of glioblastoma cells was assayed using a previously published method which employs Matrigel-coated Costar 24-well transwell cell culture chambers (“Boyden chambers”) with 8.0-μm-pore polycarbonate filter inserts (Albini, A., Iwamoto, Y., Kleinman, H. K., Martin, G. R., Aaronson, S. A., Kozlowski, J. M., and McEwan, R. N., 1987, Cancer Res., 47:3239-3245). The chamber filters were coated with 50 μg/ml of Matrigel matrix, incubated overnight at room temperature under a laminar flow hood and stored at 4° C. Matrigel matrix is made up of several components of the extralcellular matrix (ECM), including collagens, laminin and proteo-glycans
On the day of the experiment, the coated inserts were rehydrated with 0.5 ml serum-free DMEM containing 0.1% bovine serum albumin for 1-2 hours. To study the effects of quinazoline derivatives on invasiveness of glioblastoma cells, exponentially growing cells were incubated overnight with WHI-P97, WHI-P131 and WHI-P154 at various concentrations ranging from 1 μM to 50 μM. The cells were trypsinized, washed twice with serum-free DMEM containing BSA, counted and resuspended at 1×10^5 cells/ml. 0.5 ml cell suspension containing 5×10^4 cells in a serum-free DMEM containing quinazoline compounds or vehicle was added to the Matrigel-coated and rehydrated filter inserts. Next, 750 μl of NIH fibroblast conditioned medium was placed as a chemoattractant in 24-well plates and the inserts were placed in wells and incubated at 37° C. for 48 hours. […] The invasive cells that migrated to the lower side of the filter were fixed, stained with Hema-3 solutions and counted under microscope. Five to 10 random fields per filter were counted to determine the mean (±SE) values for the invasive fraction. The invasive fractions of cells treated with quinazoline derivatives were compared to those of DMSO treated control cells and he percent inhibition of invasiveness was determined using the formula: [formula]
Each treatment condition was evaluated in duplicate in 3 independent experiments. IC50 values were calculated by non-linear regression analysis using Graphpad Prisin Software Version 2.0 (Graphpad Software Inc., San Diego, Calif.).

Where [4] appears, read: U373, 3 independent experiments, 48 hours, read-out: mean IC50 value, invasion through Matrigel matrix.
The mark [5] stands for this setting: U373, 3 independent experiments, read-out: range of IC50 values, invasion through Matrigel matrix.
Setting [6] is: read-out: IC50 value derived from the average values of three experiments, invasion.
Where [7] appears, read: one bound for all three coatings, read-out: all IC50 values, adhesion to laminin-, fibronectin- and collagen-coated plates.

Where a name gives a salt, the structure may show the parent alone. Read-outs that look alike come from different tables or passages of the source.

Consider `COc1cc2ncnc(Nc3ccc(C)c(Br)c3)c2cc1OC` [WHI-P111, 4-(3′-Bromo-4′-methylphenyl)-amino-6,7-dimethoxyquinazoline], for which the melting point is 225 to 228 °C.
Regarding `COc1cc2ncnc(Nc3cc4ccccc4cc3O)c2cc1OC` [WHI-P292, 4-(2′-Hydroxy-naphthyl-3′)-amino-6,7-dimethoxyquinazoline], the IC50 in data set [1] was determined as 38.2 µM.
As to `COc1cc2ncnc(Nc3ccc(O)c(Br)c3)c2cc1OC` [WHI-P154, 4-(3′-Bromo-4′-hydroxylphenyl)-amino-6,7-dimethoxyquinazoline], the IC50 was 179 ± 18.5 µM in data set [2]; 42.7 ± 2.5 µM in the data set on U373 cells (16 hours treatment, N=3, read-out: mean IC50 value, adhesion to collagen-coated plates); 29.8 ± 3.1 µM in the data set with U373 cells (16 hours treatment, N=3, read-out: mean IC50 value, adhesion to fibronectin-coated plates); 36.1 ± 3.5 µM in the data set with U373 cells (16 hours treatment, N=3, read-out: mean IC50 value, adhesion to laminin-coated plates); 4.46 ± 0.8 µM in the data set with U373 glioblastoma cells (setting [4]); 3.53 to 5.01 µM with U373 glioblastoma cells (setting [5]). Besides, the IC50 amounted to 5.2 µM in the data set with U373 glioblastoma cells (setting [6]), 158 µM in data set [1] (read-out: composite survival curve IC50 value) and 167 ± 26.9 µM in data set [1] (read-out: mean (±SE) IC50 value). Besides, the “time at which tumors reached a size of 50 mm^3” value in data set [3] was 36.0 ± 5.1 days. Moreover, the median tumor-free survival in data set [3] (N=5) was 19 days. In addition, the “cytotoxicity against EGF-R negative leukemia cells (in words)” value with NALM-6 leukemia cells is “marked cytotoxicity”.
As to `O=c1c(-c2ccc(O)cc2)coc2cc(O)cc(O)c12` [genistein, reference compound], in the data set with U373 cells (ECM-coated plates), the “inhibition of glioblastoma cell adhesion (in words)” value was “did not affect glioblastoma cell adhesion and motility”. Besides, the half-inhibitory concentration (IC50) in data set [1] (read-out: IC50 value) was > 250 µM. In addition, the “cytotoxicity against brain tumor cells (in words)” value in data set [1] (U373, MTT, 0.1 to 250 μM, FIGS. 1A and 1B) was “also ineffective”.
On to `COc1cc2ncnc(Nc3cc4ccccc4cc3O)c2cc1OC` (as salt: salt) [WHI-P292, 4-(2′-Hydroxy-naphthyl-3′)-amino-6,7-dimethoxyquinazoline], for which the melting point is 277 to 279 °C.
Turning to `COc1cc2ncnc(Nc3ccc(O)cc3)c2cc1OC` [WHI-P131, 4-(4′-Hydroxylphenyl)-amino-6,7-dimethoxyquinazoline], the IC50 with U373 cells (setting [7]) was > 50 µM; in the data set with U373 glioblastoma cells (setting [4]), 7.07 ± 1.8 µM; in the data set on U373 glioblastoma cells (setting [5]) it was 5.08 to 8.59 µM; in the data set with U373 glioblastoma cells (setting [6]) it was 7.95 µM.
Take `COc1cc2ncnc(Nc3cc(Br)c(O)c(Br)c3)c2cc1OC` [WHI-P97, 4-(3′, 5′-Dibromo-4′-hydroxylphenyl)-amino-6,7-dimethoxyquinazoline]: the IC50 in the data set on U373 glioblastoma cells (setting [4]) was 10.6 ± 1.8 µM; in the data set on U373 glioblastoma cells (setting [5]) it was 9.57 to 11.6 µM; in the data set with U373 glioblastoma cells (setting [6]), 9.58 µM.
Take `COc1cc2ncnc(Nc3cccc(Br)c3)c2cc1OC` [WHI-P79, 4-(3′-Bromophenyl)-amino-6,7-dimethoxyquinazoline]: the IC50 in the data set with U373 cells (setting [7]) was > 50 µM.
